Values after ≈ are worked out from the molar mass of the structure shown. Like-named read-outs stand apart in the source and are kept apart here. Positions of bridges follow the written chain, without caps; N, C: chain ends. Non-standard residues stand in square brackets, D forms with d. Residues, ends and D or L forms follow the SMILES beside them. ξ: configuration not given here. *: point of attachment. Octanoyl(7-Me) = CC(C)CCCCCC(=O)*; Hexanoyl(4ξ-Me) = CCC(C)CCC(=O)*; dOrn = NCCC[C@@H](N)C(=O)O; Orn = NCCC[C@H](N)C(=O)O; Dap = NC[C@H](N)C(=O)O
Experiments:
Type in all cases: cell-based
[1] = system: P. aeruginosa ATCC 27853
Description: (§1) Minimum inhibitory concentrations (MICs) were determined by broth microdilution according to CLSI guidelines in triplicate. Blood agar plates were inoculated with glycerol stocks of E. coli ATCC 25922, E. coli MCR-1 (clinical isolate from Utrecht Medical Centre, NL), E. coli EQAS MCR-2 (clinical isolate from Wageningen University and Research, NL), K. pneumoniae ATCC 11228, K. pneumoniae ATCC 13883, K. pneumonia 2048 (clnical isolate from Vrije Universiteit Amsterdam Medical Centre, NL), K. pneumonia JS-123 (clinical isolate from Utrecht Medical […]
(§2) (clinical isolate from Rijksinstituut voor Volksgezondheid en Milieu, NL), A. baumannii MDR (clinical isolate from Vrije Universiteit Amsterdam Medical Centre, NL), P. aeruginosa ATCC 27853, P. aeruginosa PAO1, P. aeruginosa NRZ-03961 (Reference strain from Das Nationale Referenzzentrum für gramnegative Krankenhauserreger, DE), P. aeruginosa M-120 (clinical isolate from Leiden University Medical Centre, NL) and S. aureus USA300 (clinical isolate from Texas Children's Hospital, USA). E. coli 25922 MCR1 was grown on LB agar supplemented with kanamycin. The inoculated agar plates were then incubated for 16 h at 37°C . Individually grown colonies were subsequently used to inoculate 3 mL aliquots of TSB that were then incubated at 37°C with shaking at 220 rpm. In parallel, the lipopeptide antibiotics to be assessed were serially diluted with Mueller-Hinton broth (MHB) in polypropylene 96-well plates (50 µL in each well).
(§3) Once the OD600 of the bacterial suspensions reached 0.5, the bacteria were diluted with MHB (final concentration 2 × 10^5 CFU mL−1) and added to the microplates containing the test compounds (50 µL to each well, final volume: 100 µL). The well-plates were sealed with an adhesive membrane and after 16 h of incubation at 37°C with shaking at 220 rpm the wells were visually inspected for bacterial growth. MIC values reported are based on three technical replicates and defined as the lowest concentration of the compound that prevented visible growth of bacteria. […]

[2] = system: E. coli ATCC 25922
Description: as §1, §2, §3

[3] = system: P. aeruginosa M-120
Description: as §1, §2, §3

[4] = system: K. pneumoniae ATCC 13883
Description: as §1, §2, §3

[5] = system: A. baumannii ATCC 17978
Description: as §1, §2, §3

[6] = system: K. pneumoniae JS-123
Description: as §1, §2, §3

[7] = system: S. aureus USA300
Description: as §1, §2, §3

[8] = system: P. aeruginosa NRZ-03961
Description: as §1, §2, §3

[9] = system: K. pneumoniae 2048
Description: as §1, §2, §3

[10] = system: E. coli ATCC 25922 MCR-1; conditions: Ec ATCC 25922 MCR-1; broth microdilution (CLSI), MHB, 16 h 37 °C, three technical replicates
Description: as §1, §2, §3

[11] = system: K. pneumoniae ATCC 11228
Description: as §1, §2, §3

[12] = system: E. coli EQAS MCR-2; conditions: Ec EQAS MCR-2; broth microdilution (CLSI), MHB, 16 h 37 °C, three technical replicates
Description: as §1, §2, §3

[13] = system: A. baumannii 2018-006
Description: as §1, §2, §3

[14] = system: P. aeruginosa PAO1
Description: as §1, §2, §3

[15] = system: A. baumannii MDR; conditions: Ab MDR; broth microdilution (CLSI), MHB, 16 h 37 °C, three technical replicates
Description: as §1, §2, §3

[16] = system: A. baumannii ATCC 17961
Description: as §1, §2, §3

[17] = system: E. coli MCR-1 (clinical isolate); conditions: Ec MCR-1; broth microdilution (CLSI), MHB, 16 h 37 °C, three technical replicates
Description: as §1, §2, §3

[18] = Pa ATCC 27853, broth microdilution (CLSI), MHB, 16 h 37 °C, three technical replicates
[19] = Ec ATCC 25922, broth microdilution (CLSI), MHB, 2 × 10^5 CFU/mL, 16 h 37 °C, visual read-out, three technical replicates
[20] = Pa M-120, broth microdilution (CLSI), MHB, 16 h 37 °C, three technical replicates
[21] = Kp ATCC 13883, broth microdilution (CLSI), MHB, 16 h 37 °C, three technical replicates
[22] = Ab ATCC 17978, broth microdilution (CLSI), MHB, 16 h 37 °C, three technical replicates
[23] = Kp JS-123, broth microdilution (CLSI), MHB, 16 h 37 °C, three technical replicates
[24] = Sa USA300, broth microdilution (CLSI), MHB, 16 h 37 °C, three technical replicates
[25] = Pa NRZ-03961, broth microdilution (CLSI), MHB, 16 h 37 °C, three technical replicates
[26] = Kp 2048, broth microdilution (CLSI), MHB, 16 h 37 °C, three technical replicates
[27] = Kp ATCC 11228, broth microdilution (CLSI), MHB, 16 h 37 °C, three technical replicates
[28] = Ab 2018-006, broth microdilution (CLSI), MHB, 16 h 37 °C, three technical replicates
[29] = Pa PAO1, broth microdilution (CLSI), MHB, 16 h 37 °C, three technical replicates
[30] = Ab ATCC 17961, broth microdilution (CLSI), MHB, 16 h 37 °C, three technical replicates

| Compound | MIC ([1]; ATCC 27853, 16 h) [mg/L] | MIC ([2]; ATCC 25922, 16 h) [mg/L] | MIC ([3]; M-120, 16 h) [mg/L] | MIC ([4]; ATCC 13883, 16 h) [mg/L] | MIC ([5]; ATCC 17978, 16 h) [mg/L] | MIC ([6]; JS-123, 16 h) [mg/L] | MIC ([7]; USA300, 16 h) [mg/L] | MIC ([8]; NRZ-03961, 16 h) [mg/L] | MIC ([9]; 2048, 16 h) [mg/L] | MIC [10] [mg/L] | MIC ([11]; ATCC 11228, 16 h) [mg/L] | MIC [12] [mg/L] | MIC ([13]; 2018-006, 16 h) [mg/L] | MIC ([14]; PAO1, 16 h) [mg/L] | MIC [15] [mg/L] | MIC ([16]; ATCC 17961, 16 h) [mg/L] | MIC [1, 18] [mg/L] | MIC [2, 19] [mg/L] | MIC [3, 20] [mg/L] | MIC [17] [mg/L] | also measured |
| --- | --- | --- | --- | --- | --- | --- | --- | --- | --- | --- | --- | --- | --- | --- | --- | --- | --- | --- | --- | --- | --- |
| CCC(C)CCC(=O)N[C@H](CC(N)=O)C(=O)N[C@H](Cc1ccc(O)cc1)C(=O)N[C@H](Cc1c[nH]c2ccccc12)C(=O)N[C@H](CCCN)C(=O)N[C@@H](CCCN)C(=O)NCC(=O)N[C@H](CCCN)C(=O)N[C@@H](Cc1c[nH]c2ccccc12)C(=O)N[C@@H]1C(=O)N[C@@H]([C@@H](C)CC)C(=O)NCC(=O)N[C@@H](CO)C(=O)O[C@@H]1C (some centres unmarked) [Brev (1), brevicidine] | ≤0.5 | 1 to 2 | 2 to 4 | 1 (≈ 0.658 µM) | 4 (≈ 2.63 µM) | 1 (≈ 0.658 µM) | 64 (≈ 42.1 µM) | 2 (≈ 1.32 µM) | 1 to 2 | 2 (≈ 1.32 µM) | 1 to 2 | 2 (≈ 1.32 µM) | 4 (≈ 2.63 µM) | 2 (≈ 1.32 µM) | 4 (≈ 2.63 µM) | 2 to 4 |  |  |  |  |  |
| CCC(C)CCC(=O)N[C@H](CC(N)=O)C(=O)N[C@H](Cc1ccc(O)cc1)C(=O)N[C@H](Cc1c[nH]c2ccccc12)C(=O)N[C@H](CCCN)C(=O)N[C@@H](CCCN)C(=O)NCC(=O)N[C@H](CCCN)C(=O)N[C@@H](Cc1c[nH]c2ccccc12)C(=O)N[C@H]1CNC(=O)[C@H](CO)NC(=O)CNC(=O)[C@H]([C@@H](C)CC)NC1=O (some centres unmarked) [Dap9-Brev (5), Dap9-Brevicidamide] ({Hexanoyl(4ξ-Me)}-[dN][dY][dW][dOrn][Orn]G[dOrn]W[Dap]IGS; lactam 9-C) |  |  |  |  |  |  |  |  |  | 16 (≈ 10.6 µM) |  | 8 to 16 |  |  | 8 (≈ 5.32 µM) |  | 8 (≈ 5.32 µM) | 8 to 16 | 16 (≈ 10.6 µM) | 8 to 16 | MIC [4, 21]: 32 mg/L (≈ 21.3 µM); MIC [5, 22]: 16 mg/L (≈ 10.6 µM); MIC [6, 23]: 8 mg/L (≈ 5.32 µM); MIC [7, 24]: >64 mg/L; MIC [8, 25]: 16 to 32 mg/L; MIC [9, 26]: 16 to 32 mg/L; MIC [11, 27]: 16 to 32 mg/L; MIC [13, 28]: 8 mg/L (≈ 5.32 µM); MIC [14, 29]: 16 to 32 mg/L; MIC [16, 30]: 4 mg/L (≈ 2.66 µM) |
| CCC(C)CCC(=O)N[C@H](CC(N)=O)C(=O)N[C@H](Cc1ccc(O)cc1)C(=O)N[C@H](Cc1c[nH]c2ccccc12)C(=O)N[C@H](CCCN)C(=O)N[C@@H](CCCN)C(=O)NCC(=O)N[C@H](CCCN)C(=O)N[C@@H](Cc1c[nH]c2ccccc12)C(=O)N[C@@H]1C(=O)N[C@@H]([C@@H](C)CC)C(=O)NCC(=O)N[C@@H](CO)C(=O)N[C@@H]1C (some centres unmarked) [MeDap9-Brev (7)] | 2 to 4 | 16 (≈ 10.5 µM) | 4 (≈ 2.63 µM) | 8 (≈ 5.27 µM) | 16 (≈ 10.5 µM) | 4 to 8 | >64 | 8 (≈ 5.27 µM) | 8 to 16 | 8 (≈ 5.27 µM) | 8 (≈ 5.27 µM) |  | 16 (≈ 10.5 µM) | 4 (≈ 2.63 µM) |  | 8 to 16 |  |  |  | 8 (≈ 5.27 µM) |  |
| CC[C@H](C)[C@@H]1NC(=O)[C@@H](NC(=O)[C@H](Cc2c[nH]c3ccccc23)NC(=O)[C@@H](CCCN)NC(=O)CNC(=O)[C@H](CCCN)NC(=O)[C@@H](CCCN)NC(=O)[C@@H](Cc2c[nH]c3ccccc23)NC(=O)[C@@H](Cc2ccc(O)cc2)NC(=O)[C@@H](CO)NC(=O)CCCCCC(C)C)COC(=O)CNC(=O)CNC(=O)[C@H](CC(N)=O)NC1=O [Ser9-Lat (4), Ser9-Laterocidine] ({Octanoyl(7-Me)}-[dS][dY][dW][dOrn][Orn]G[dOrn]WSINGG; ester 9-C) | 0.5 to 1 | 0.5 (≈ 0.314 µM) | 1 (≈ 0.629 µM) | 1 to 2 | 2 (≈ 1.26 µM) | 0.5 (≈ 0.314 µM) | >64 | 1 to 2 | 2 (≈ 1.26 µM) |  | 1 to 2 |  | 4 (≈ 2.51 µM) | 2 (≈ 1.26 µM) |  | 4 (≈ 2.51 µM) |  |  |  |  |  |
| colistin [reference compound] |  |  |  |  |  |  |  |  |  |  |  | 4 |  |  | <0.25 |  | <0.25 | 0.25 to 0.5 | <0.25 | 2 to 4 | MIC [4, 21]: 0.25 mg/L; MIC [5, 22]: <0.25 mg/L; MIC [6, 23]: <0.25 mg/L; MIC [7, 24]: >64 mg/L; MIC [8, 25]: 0.25 to 0.5 mg/L; MIC [9, 26]: 0.5 to 1 mg/L; MIC [11, 27]: <0.25 mg/L; MIC [13, 28]: <0.25 mg/L; MIC [14, 29]: 0.25 to 0.5 mg/L; MIC [16, 30]: <0.25 mg/L |

Source: publication PMC8943889, “Synthetic studies with the brevicidine and laterocidine lipopeptide antibiotics including analogues with enhanced properties and in vivo efficacy” (Chemical Science, 2022)
